Source: ChEMBL document CHEMBL3045153, “Screening of flavonoids for antitubercular activity and their structureactivity relationships” (2013)
In brackets after ≈: the same amount, converted by molar mass. Activity calls are given as the source filed them. The calls are words filed in the database; no cut-off is given here.

What follows are compounds tested on Mycobacterium tuberculosis (assay: Antitubercular activity against Mycobacterium tuberculosis H37Rv ATCC 27294 measured every 24 hr by BACTEC 460 radiometric assay). Settings: H37Rv ATCC 27294, 24 h.
Assay type: functional

SMILES | MIC [µg/mL]
O=c1cc(-c2ccccc2)oc2cc(O)c(O)c(O)c12 [BAICALEIN] | 50 (≈ 185 µM)
CN[C@@H]1[C@H](O[C@H]2[C@H](O[C@H]3[C@H](O)[C@@H](O)[C@H](N=C(N)N)[C@@H](O)[C@@H]3N=C(N)N)O[C@@H](C)[C@]2(O)C=O)O[C@@H](CO)[C@H](O)[C@H]1O [STREPTOMYCIN] | 2 (≈ 3.44 µM)
COc1c(O)cc2oc(-c3ccc(O)cc3)cc(=O)c2c1O [HISPIDULIN] | 100 (≈ 333 µM)
O=c1c(O)c(-c2cc(O)c(O)c(O)c2)oc2cc(O)cc(O)c12 [MYRICETIN] | 50 (≈ 157 µM)
O=c1c(O)c(-c2ccc(O)c(O)c2)oc2cc(O)cc(O)c12 [QUERCETIN] | 50 (≈ 165 µM)
CO[C@H]1/C=C/O[C@@]2(C)Oc3c(C)c(O)c4c(O)c(c(/C=N/N5CCN(C)CC5)c(O)c4c3C2=O)NC(=O)/C(C)=C\C=C\[C@H](C)[C@H](O)[C@@H](C)[C@@H](O)[C@@H](C)[C@H](OC(C)=O)[C@@H]1C [RIFAMPIN] | 2 (≈ 2.43 µM)
O=c1cc(-c2ccc(O)c(O)c2)oc2cc(O)cc(O)c12 [LUTEOLIN] | 25 (≈ 87.3 µM)

What follows are compounds tested on Mycobacterium tuberculosis (assay: Antitubercular activity against Mycobacterium tuberculosis H37Rv ATCC 27294 at 100 ug/ml measured every 24 hr by BACTEC 460 radiometric assay). Settings: not given.
Assay type: functional, organism-based

SMILES | Activity
O=c1cc(-c2ccc(O)cc2)oc2cc(O)cc(O)c12 | inactive
O=c1c(O)c(-c2ccccc2)oc2cc(O)cc(O)c12 | inactive
COc1ccc([C@@H]2CC(=O)c3c(O)cc(O[C@@H]4O[C@H](CO[C@@H]5O[C@@H](C)[C@H](O)[C@@H](O)[C@H]5O)[C@@H](O)[C@H](O)[C@H]4O)cc3O2)cc1O | inactive
C[C@H]1O[C@H](Oc2c(-c3ccc(O)cc3)oc3cc(O)cc(O)c3c2=O)[C@@H](O)[C@@H](O)[C@@H]1O | inactive
COc1ccc(-c2oc3cc(OC)c(OC)c(O)c3c(=O)c2OC)cc1O | inactive
O=c1cc(-c2ccccc2)oc2cc(O)cc(O)c12 | inactive
C[C@@H]1O[C@@H](OC[C@H]2O[C@@H](Oc3c(-c4ccc(O)c(O)c4)oc4cc(O)cc(O)c4c3=O)[C@H](O)[C@@H](O)[C@@H]2O)[C@H](O)[C@H](O)[C@H]1O | inactive
O=c1cc(-c2ccc(O)cc2)oc2cc(OC3O[C@H](CO)[C@@H](O)[C@H](O)[C@H]3O)cc(O)c12 (some centres not stated) | inactive
COc1c(O)cc2oc(-c3ccccc3)cc(=O)c2c1O | inactive
O=c1c(O)c(-c2ccc(O)cc2)oc2cc(O)cc(O)c12 | inactive
